Consider 29 molecules from patent US7872014B2, “Anaplastic lymphoma kinase modulators and methods of use” (Exelixis, Inc., priority 2003, dated 2011).

SMILES strings stand for the structures. pIC50: −log10 of the molar value. Where a name gives a salt, the structure may show the parent alone.

The target in the experiment is T1, ALK (baculovirus expressed human ALK kinase domain F1098-K1410) (Homo sapiens, UniProt Q9UM73).
T1 construct: baculovirus expressed human ALK kinase domain F1098-K1410; made in house
T1 sequence (Q9UM73 1098-1410): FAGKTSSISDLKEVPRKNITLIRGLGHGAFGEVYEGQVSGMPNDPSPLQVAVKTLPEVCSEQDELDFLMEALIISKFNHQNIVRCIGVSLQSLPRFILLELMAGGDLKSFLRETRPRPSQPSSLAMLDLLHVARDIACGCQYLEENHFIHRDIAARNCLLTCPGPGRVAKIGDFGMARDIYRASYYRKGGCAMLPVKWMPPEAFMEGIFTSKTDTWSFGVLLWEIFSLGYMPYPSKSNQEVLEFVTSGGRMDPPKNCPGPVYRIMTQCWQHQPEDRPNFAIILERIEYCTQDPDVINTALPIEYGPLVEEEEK
Description: Luciferase-Coupled Chemiluminescent Kinase assay (LCCA), ALK biochemical activity. The following applies: inhibition of ALK; mean values; 1 μM ATP, 4 μM poly-AEKY, 12 nM ALK, 2 hours ambient temperature. The method, then: ALK biochemical activity was assessed using a Luciferase-Coupled Chemiluminescent Kinase assay (LCCA) format in which kinase activity was measured as the percent ATP remaining following the kinase reaction. ATP remaining after the kinase reaction was detected by luciferase-luciferin-coupled chemiluminescence.
The reaction was initiated by mixing test compounds, 1 μM ATP, 4 μM poly-AEKY and 12 nM ALK (baculovirus expressed human ALK kinase domain F1098-K1410) in a 20 μL assay buffer ([…] pH 7.5, 10 mM MgCl2, 0.02% Triton X-100, 100 mM DTT, 2 mM MnCl2). The mixture was incubated at ambient temperature for 2 hours after which 20 μL luciferase-luciferin mix was added and the chemiluminescent signal read using a Wallac Victor^2 reader. The luciferase-luciferin mix consists of 50 mM HEPES, pH 7.8, 8.5 μg/mL oxalic acid (pH 7.8), 5 (or 50) mM DTT, 0.4% Triton X-100, 0.25 mg/mL coenzyme A, 63 μM AMP, 28 μg/mL luciferin and 40,000 units of light/mL luciferase.
Consumption of ATP by ALK can thus be quantified and utilized as a measure of inhibition of ALK activity by compounds described herein. By employing serial dilutions of compounds to be tested, the ability of test compounds to inhibit ALK activity can be determined.
On to `COc1cc2c(-c3ccc(O)cc3)nc3[nH]nc(Cc4cccc(C)c4)c3c2cc1OC` [Example 14, hydrochloride], for which the pIC50 was 6.00 to 7.00.
In the case of `COc1cc2c(-c3ccc(O)cc3)nc3[nH]nc(C)c3c2cc1OC` [Example 15, trifluoroacetate], the pIC50 was at least 7.00.
`COc1cc2c(c(-c3ccc(O)cc3)nc3[nH]nc(Cc4ccccc4)c32)c(OC)c1OC` [Example 24, 4-[6,7,8-tris(methyloxy)-1-(phenylmethyl)-3H-pyrazolo[3,4-c]isoquinolin-5-yl]phenol]: the pIC50 was at least 7.00.
Under `COc1cc2c(c(-c3ccc(O)cc3)nc3[nH]nc(C)c32)c(OC)c1OC` [Example 25, 4-[1-methyl-6,7,8-tris(methyloxy)-3H-pyrazolo[3,4-c]isoquinolin-5-yl]phenol] stands at least 7.00; under `COc1ccc2c(-c3ccc(O)cc3)nc3[nH]nc(Cc4ccccc4)c3c2c1` [Example 26, 4-[8-(methyloxy)-1-(phenylmethyl)-3H-pyrazolo[3,4-c]isoquinolin-5-yl]phenol], 6.00 to 7.00.
For `COc1cc2c(-c3ccc(O)cc3)nc3[nH]nc(C(F)(F)F)c3c2cc1OC` [Example 27, 4-[7,8-bis(methyloxy)-1-(trifluoromethyl)-3H-pyrazolo[3,4-c]isoquinolin-5-yl]phenol], the pIC50 was 6.00 to 7.00.
In the case of `COc1cc2c(-c3ccc(O)cc3)nc3[nH]nc(C(C)C)c3c2cc1OC` [Example 28, 4-[1-(1-methylethyl)-7,8-bis(methyloxy)-3H-pyrazolo[3,4-c]isoquinolin-5-yl]phenol], the negative-log IC50 (pIC50) was 6.00 to 7.00.
`COc1cc2c(-c3ccc(O)cc3)nc3[nH]ncc3c2cc1OC` [Example 29, 4-[7,8-bis(methyloxy)-3H-pyrazolo[3,4-c]isoquinolin-5-yl]phenol] showed a pIC50 of 6.00 to 7.00.
Under `COc1cc(OC)c2c(-c3ccc(O)cc3)nc3[nH]nc(C)c3c2c1` [Example 31, 4-[1-methyl-6,8-bis(methyloxy)-3H-pyrazolo[3,4-c]isoquinolin-5-yl]phenol] stands at least 7.00; under `COc1cc(OC)c2c(-c3ccc(O)cc3)nc3[nH]ncc3c2c1` [Example 32, 4-[6,8-bis(methyloxy)-3H-pyrazolo[3,4-c]isoquinolin-5-yl]phenol], 6.00 to 7.00; under `COc1cc2c(c(-c3ccc(O)cc3)nc3[nH]ncc32)c(OC)c1OC` [Example 34, 4-[6,7,8-tris(methyloxy)-3H-pyrazolo[3,4-c]isoquinolin-5-yl]phenol], at least 7.00.
`COc1cc2c(-c3ccc(O)cc3)nc3[nH]nc(C)c3c2c(OC)c1OC` [Example 35, 4-[1-methyl-7,8,9-tris(methyloxy)-3H-pyrazolo[3,4-c]isoquinolin-5-yl]phenol] gave a pIC50 of at least 7.00.
Molecule `COc1ccc2c(-c3ccc(O)cc3)nc3[nH]nc(C)c3c2c1` [Example 36, 4-[1-methyl-8-(methyloxy)-3H-pyrazolo[3,4-c]isoquinolin-5-yl]phenol] had a pIC50 of at least 7.00.
On to `COc1cc2c(-c3ccc(O)c(C)c3)nc3[nH]nc(C)c3c2cc1OC` [Example 37, 2-methyl-4-[1-methyl-7,8-bis(methyloxy)-3H-pyrazolo[3,4-c]isoquinolin-5-yl]phenol], for which the pIC50 is at least 7.00.
Under `COc1cc(-c2nc3[nH]nc(C)c3c3cc(OC)c(OC)cc23)ccc1O` [Example 38, 4-[1-methyl-7,8-bis(methyloxy)-3H-pyrazolo[3,4-c]isoquinolin-5-yl]-2-(methyloxy)phenol] stands 6.00 to 7.00; under `COc1cc2c(cc1OCCN1CCOCC1)c(-c1ccc(O)cc1)nc1[nH]nc(C)c12` [Example 39, 4-{1-methyl-8-(methyloxy)-7-[(2-morpholin-4-ylethyl)oxy]-3H-pyrazolo[3,4-c]isoquinolin-5-yl}phenol], 6.00 to 7.00; under `CCOc1cc(-c2nc3[nH]nc(C)c3c3cc(OC)c(OC)cc23)ccc1O` [Example 40, 2-(ethyloxy)-4-[1-methyl-7,8-bis(methyloxy)-3H-pyrazolo[3,4-c]isoquinolin-5-yl]phenol], 6.00 to 7.00.
The figure for `COc1cc2c(-c3ccc(O)c(Cl)c3)nc3[nH]nc(C)c3c2cc1OC` [Example 41, 2-chloro-4-[1-methyl-7,8-bis(methyloxy)-3H-pyrazolo[3,4-c]isoquinolin-5-yl]phenol] is at least 7.00.
Under `COc1cc2c(-c3ccc(O)c(F)c3)nc3[nH]nc(C)c3c2cc1OC` [Example 42, 2-fluoro-4-[1-methyl-7,8-bis(methyloxy)-3H-pyrazolo[3,4-c]isoquinolin-5-yl]phenol] stands 6.00 to 7.00; under `COc1cc2c(-c3ccc(O)c(Br)c3)nc3[nH]nc(C)c3c2cc1OC` [Example 44, 2-bromo-4-[1-methyl-7,8-bis(methyloxy)-3H-pyrazolo[3,4-c]isoquinolin-5-yl]phenol], at least 7.00; under `COc1cc2c(-c3ccc(O)cc3)nc3[nH]nc(CN4CCCC4=O)c3c2cc1OC` [Example 45, 1-{[5-(4-hydroxyphenyl)-7,8-bis(methyloxy)-3H-pyrazolo[3,4-c]isoquinolin-1-yl]methyl}pyrrolidin-2-one], 6.00 to 7.00.
In turn, `COc1cc2c(-c3ccc(O)cc3)nc3[nH]nc(C)c3c2cc1OCC1CCNCC1` [Example 54, 4-{1-methyl-7-(methyloxy)-8-[(piperidin-4-ylmethyl)oxy]-3H-pyrazolo[3,4-c]isoquinolin-5-yl}phenol] had a pIC50 of at least 7.00.
Under `COc1cc2c(cc1OCC1CCNCC1)c(-c1ccc(O)cc1)nc1[nH]nc(C)c12` [Example 55, 4-{1-methyl-8-(methyloxy)-7-[(piperidin-4-ylmethyl)oxy]-3H-pyrazolo[3,4-c]isoquinolin-5-yl}phenol] stands 6.00 to 7.00; under `CCOc1cc2c(cc1OC)c(-c1ccc(O)cc1)nc1[nH]nc(C)c12` [Example 58, 4-[8-(ethyloxy)-1-methyl-7-(methyloxy)-3H-pyrazolo[3,4-c]isoquinolin-5-yl]phenol], 6.00 to 7.00.
With `COc1ccc2c(-c3ccc(O)cc3)nc3[nH]nc(C)c3c2c1OC` [Example 59, 4-[1-methyl-8,9-bis(methyloxy)-3H-pyrazolo[3,4-c]isoquinolin-5-yl]phenol], the negative logarithm of the IC50 (pIC50) is at least 7.00.
The figure for `CCOc1cc2c(-c3ccc(O)cc3)nc3[nH]nc(C)c3c2cc1OC` [Example 60, 4-[7-(ethyloxy)-1-methyl-8-(methyloxy)-3H-pyrazolo[3,4-c]isoquinolin-5-yl]phenol] is 6.00 to 7.00; for `COc1ccc2c(-c3ccc(O)cc3)nc3[nH]nc(C)c3c2c1OCC1CCNCC1` [Example 61, 4-{1-methyl-8-(methyloxy)-9-[(piperidin-4-ylmethyl)oxy]-3H-pyrazolo[3,4-c]isoquinolin-5-yl}phenol] it is at least 7.00.
`CCc1cc(-c2nc3[nH]nc(C)c3c3cc(OC)c(OC)cc23)ccc1O` [Example 63, 2-ethyl-4-[1-methyl-7,8-bis(methyloxy)-3H-pyrazolo[3,4-c]isoquinolin-5-yl]phenol]: the negative-log IC50 (pIC50) is 6.00 to 7.00.
Under `COc1ccc2c(-c3ccc(O)cc3)nc3[nH]nc(C)c3c2c1OCC1CCN(C)CC1` [Example 64, 4-(1-methyl-8-(methyloxy)-9-{[(1-methylpiperidin-4-yl)methyl]oxy}-3H-pyrazolo[3,4-c]isoquinolin-5-yl)phenol] stands at least 7.00.
